Patent US8901314B2, “Substituted pyrazoles as N-type calcium channel blockers” (Janssen Pharmaceutica NV, priority 2012, dated 2014)
pIC50: −log10 of the molar value.

Tests used:
[1] = tested on: Cav2.2 (N-type calcium channel; α1B, α2δ and β3 subunits stably expressed in HEK293 cells); assay: Automated electrophysiology assay (QPatch-HT patch clamp); assay type: cell-based; details: 0.1 μM; for QPatch % Inhibition, High Freq: high frequency stimulation (15th pulse of 5 Hz train); for QPatch % Inhibition, Low Freq: low frequency stimulation (1st pulse of train)
Description: The Cav2.2 (α1B) subunit (GenBank accession no. AAO53230; supplied by Lipscombe's laboratory at Brown University) was subcloned into pcDNA3.1, whereas the α2δ (M86621) and β3 (M88751) subunits were subcloned into pBudCE4.1 vectors. Stable cell lines expressing all three subunits were generated according to the following procedure: 1) HEK293 cells were transfected with α2δ−1/β3 expression constructs resulting in a stable cell line expressing α2δ−1 and β3 subunits that were selected under 200 μg/mL of Zeocin; 2) a stable cell line expressing α2δ−1/β3 subunits in high quantity as evidenced in its Western blots was isolated from the colony and purified; 3) this cell line was further transfected with Cav2.2 expression constructs, from which cells were subsequently selected under 400 μg/mL G418 and 200 μg/mL Zeocin; 4) these cells were clonally isolated, expanded and screened by Western blot analysis for expressing all three subunits
Cultures of cells stably expressing Cav2.2 were maintained at 37° C. in low glucose-containing Dulbecco's Modified Eagle medium (low glucose) under a 5% CO2 atmosphere. The medium was supplemented with 10% fetal bovine serum, 2 mM L-glutamine, 100 IU/mL penicillin, […] streptomycin, 400 μg/mL G418 and 200 μg/mL Zeocin.
High-throughput automated patch clamp system experiments were carried out using instruments (QPatch-HT) available from Sophion Biosciences, Inc. North Brunswick, N.J. Cells were grown in T175 flasks to 50%-90% confluence were enzymatically treated with Deatchin (Genlantis, San Diego, Calif., U.S.A.), centrifuged, rinsed and resuspended in 293 SFM II media (Life Technologies, Grand Island, N.Y., U.S.A.) supplemented with 25 mM HEPES (Sigma-Aldrich, St. Louis, Mo., U.S.A.) to a concentration of 2−3×10^6 cells/mL. Cells were added to automated cell preparation station on the QPatch-HT (Sophion Biosciences, North Brunswick, N.J., U.S.A.) and following a 10- to 30-min recovery period with gentle stirring, the assay protocol was initiated. During the automated cell preparation, cells were collected, centrifuged and resuspended in an extracellular (EC) solution containing 132 mM NaCl, 1.8 mM CaCl2, 5.4 mM KCl, 0.8 mM MgCl2, 10 mM glucose, and 10 mM HEPES (pH=7.4), adjusted with sucrose to 315 m0sm. The QPlate was primed with an intracellular solution containing 135 CsCl, 10 mM EGTA, 4 MgATP, 0.3 NaGTP, and 20 mM HEPES (pH=7.2), adjusted to approximately 290 m0sm with deionized water and the EC solution. Cells were added to the prepared QPlate wells by robotic pipettes of the QPatch-HT.
For cells determined to be in stable whole-cell patch clamp, the EC solution was replaced with a barium (Ba)/triethylammonium (TEA) solution containing 140 mM TEA-Cl, 10 mM BaCl2, 0.8 mM MgCl2, 10 mM glucose, and 10 mM HEPES (pH=7.4). High (40 mM) BaCl2 concentrations were made with adjustments of TEA-Cl (90 mM) to maintain the osmolarity. From a resting potential of −80 mV, a train of depolarizing pulses (15 pulses at 5 Hz, +20 mV) was delivered to the cell once every 30 sec for eight trains (4 min total), and the resulting currents were measured during a control period (no compound). This protocol was repeated for each subsequent addition of control buffer with or without compound (three periods total, each with four trains). The current generated in the 1st and 15th pulses of the last train of each period in the presence of each drug concentration was normalized to the current generated during the control period at the respective pulses (representing low- and high frequency stimulation, respectively). Data from both the second and third drug application period were analyzed for each cell. A final addition of Ba/TEA solution containing 60-100 uM CdCl2 was made to block all N-type current and “zero” the currents for each cell. A buffer/compound additions were made using a “spitting” feature of the QPatch-HT, which added three repretitions of 5 μL solution at the beginning of each recording period.

[2] = biological target: α1B (Cav2.2), β3 and α2δ subunits of the N-type calcium channel (stable HEK cell line) (Rattus norvegicus, UniProt Q02294); assay: Calcium-dye indicator assay (FDSS, KCl depolarization); assay type: cell-based; details: calcium mobilization response to 50 mM KCl; six-point concentration-response
Description: A stable cell line (HEK parent) co-expressing the α1B (Cav2.2), β3 and α2δ subunits of the N-type calcium channel subunits was used. These cells were routinely grown as monolayers in low glucose-containing Dulbecco's Modified Eagle Medium supplemented with 10% FBS, 2 mM L-glutamine, 100 I.U./mL penicillin, 100 μg/mL streptomycin, 400 μg/mL G418 and 200 μg/mL Zeocin (split ratio=1:5). Cells were maintained in 5% CO2 at 37° C. Compounds of Formula (I) were prepared as 10 mM stocks in DMSO from neat compound, if available. Otherwise, the 5 or 10 mM DMSO stock solutions provided in-house were used.
Calcium mobilization responses to KCl depolarization were evaluated by measuring the intensity of calcium-mediated fluorescent signal in the presence of BD Calcium Assay Dye (BD Biosciences, Franklin Lakes, N.J., U.S.A.), utilizing a Functional Drug Screening System (FDSS) by Hamamatsu Corporation (Bridgewater, N.J., U.S.A.).
Twenty-four hours prior to assay, cells were seeded in clear-base poly-D-lysine coated 384-well plates (BD Biosciences) at a density of 5,000 cells per well in culture medium and grown overnight in 5% CO2 at 37° C. On the day of assay growth media were removed and cells were loaded with BD calcium assay dye (BD Biosciences) for 35 min at 37° C. under 5% CO2 and then for 25 min at room temperature. Utilizing the FDSS, cells were exposed to representative compounds of Formula (I) at varying concentrations and intracellular calcium was measured for 5 min prior to the addition of 50 mM KCl for an additional 3 min of measurement.
Maximal fluorescence intensity (FI) achieved upon addition of 50 mM KCl was exported from the FDSS software and further analyzed using GraphPad Prism 4 (Graph Pad Software Inc., CA, U.S.A.). Data were normalized to the maximum average counts from quadruplicate wells for each condition in the presence of 50 mM KCl and to the minimum average counts in the presence of buffer. Theoretical curves were generated using nonlinear regression curve-fitting analysis of either sigmoidal concentration-response or sigmoidal concentration-response (variable slope), and the IC50 values with the best-fit dose curve determined by GraphPad Prism were reported.

Row | pIC50 [2] | SMILES | QPatch % Inhibition, High Freq [1] [%] | QPatch % Inhibition, Low Freq [1] [%]
1 | 7.92 | COc1ccccc1-n1nc(C2C[C@@H](C)O[C@H](C)C2)cc1-c1ccccc1 (relative stereo) [Compound 67, 3-[(trans)-2,6-Dimethyltetrahydro-2H-pyran-4-yl]-1-(2-methoxyphenyl)-5-phenyl-1H-pyrazole] | 65 | 55
2 | 8.89 | COc1ccc(-c2cc(C3CC(C)(C)OC(C)(C)C3)nn2-c2ccccc2OC)cc1 [Compound 5, 1-(2-Methoxyphenyl)-5-(4-methoxyphenyl)-3-(2,2,6,6-tetramethyltetrahydro-2H-pyran-4-yl)-1H-pyrazole] | 67 | 59
3 | 8.96 | COc1ccccc1-n1nc(C2CC(C)(C)OC(C)(C)C2)cc1-c1ccc(SC)cc1 [Compound 6, 1-(2-Methoxyphenyl)-5-[4-(methylsulfanyl)phenyl]-3-(2,2,6,6-tetramethyltetrahydro-2H-pyran-4-yl)-1H-pyrazole] | 48 | 48
4 | 8.80 | COc1ccccc1-n1nc(C2CC(C)(C)OC(C)(C)C2)cc1C1=CCC(C)(C)CC1 [Compound 8, 5-(4,4-Dimethylcyclohex-1-en-1-yl)-1-(2-methoxyphenyl)-3-(2,2,6,6-tetramethyltetrahydro-2H-pyran-4-yl)-1H-pyrazole] | 40 | 37
5 | 8.70 | COc1ccccc1-n1nc(C2CC(C)(C)OC(C)(C)C2)cc1-c1ccc(C)cc1 [Compound 10, 1-(2-Methoxyphenyl)-5-(4-methylphenyl)-3-(2,2,6,6-tetramethyltetrahydro-2H-pyran-4-yl)-1H-pyrazole] | 38 | 46
6 | 8.59 | COc1ccccc1-n1nc(C2CC(C)(C)OC(C)(C)C2)cc1-c1ccc(C(C)=O)cc1 [Compound 12, 1-{4-[1-(2-Methoxyphenyl)-3-(2,2,6,6-tetramethyltetrahydro-2H-pyran-4-yl)-1H-pyrazol-5-yl]phenyl}ethanone] | 41 | 30
7 | 8.31 | COc1ccc(-c2cc(C3CC(C)(C)OC(C)(C)C3)nn2-c2ccccc2OC)cn1 [Compound 13, 2-Methoxy-5-[1-(2-methoxyphenyl)-3-(2,2,6,6-tetramethyltetrahydro-2H-pyran-4-yl)-1H-pyrazol-5-yl]pyridine] | 47.5 | 32

The next lines start with the compound.

Row | SMILES | pIC50 [2] | QPatch % Inhibition, High Freq [1] [%] | QPatch % Inhibition, Low Freq [1] [%]
8 | COc1ccccc1-n1nc(C2C[C@@H](C)O[C@H](C)C2)cc1-c1ccc(Cl)cc1 (relative stereo) [Compound 61, 5-(4-Chlorophenyl)-3-[(trans)-2,6-dimethyltetrahydro-2H-pyran-4-yl]-1-(2-methoxyphenyl)-1H-pyrazole] | 8.82 | 62 | 30
9 | COc1ccccc1-n1nc([C@H]2CCO[C@@H](C(C)C)C2)cc1-c1ccc(Cl)cc1 (relative stereo) [Compound 64, 5-(4-Chlorophenyl)-1-(2-methoxyphenyl)-3-[(cis)-2-(1-methylethyl)tetrahydro-2H-pyran-4-yl]-1H-pyrazole] | 8.14 | 55 | 18
10 | COc1ccccc1-n1nc(C2=C[C@H](C)O[C@@H](C)C2)cc1-c1ccc(Cl)cc1 (relative stereo) [Compound 96, 5-(4-Chlorophenyl)-3-[(trans)-2,6-dimethyl-3,6-dihydro-2H-pyran-4-yl]-1-(2-methoxyphenyl)-1H-pyrazole] | 8.09 | 29 | −20
11 | COc1ccccc1-n1nc(C2CC(C)(C)OC(C)(C)C2)cc1-c1ccc(Cl)cc1 [Compound 1, 5-(4-Chloro-phenyl)-1-(2-methoxy-phenyl)-3-(2,2,6,6-tetramethyl-tetrahydro-pyran-4-yl)-1H-pyrazole] | 8.77 | 63 | 58
12 | COc1ccccc1-n1nc(C2CC(C)(C)OC(C)(C)C2)cc1-c1ccc(C#N)cc1 [Compound 2, 4-[1-(2-Methoxyphenyl)-3-(2,2,6,6-tetramethyltetrahydro-2H-pyran-4-yl)-1H-pyrazol-5-yl]-benzonitrile] | 8.96 | 53.5 | 56.5
13 | COc1ccccc1-n1nc(C2CC(C)(C)OC(C)(C)C2)cc1-c1ccc(Cl)cc1F [Compound 3, 5-(4-Chloro-2-fluorophenyl)-1-(2-methoxyphenyl)-3-(2,2,6,6-tetramethyltetrahydro-2H-pyran-4-yl)-1H-pyrazole] | 9.00 | 42 | 34
14 | COc1ccccc1-n1nc(C2CC(C)(C)OC(C)(C)C2)cc1-c1ccc2c(c1)OCO2 [Compound 4, 5-(1,3-Benzodioxol-5-yl)-1-(2-methoxyphenyl)-3-(2,2,6,6-tetramethyltetrahydro-2H-pyran-4-yl)-1H-pyrazole] | 9.00 | 39 | 35
15 | CCOc1ccc(-c2cc(C3CC(C)(C)OC(C)(C)C3)nn2-c2ccccc2OC)cc1 [Compound 9, 5-(4-Ethoxyphenyl)-1-(2-methoxyphenyl)-3-(2,2,6,6-tetramethyltetrahydro-2H-pyran-4-yl)-1H-pyrazole] | 8.64 | 47.5 | 34
